Test [1] deals with T1, human A1AR.
T1 construct: host or cells: HEK293 A1AR Nomad cell line
Kind of test: A1AR cAMP assay, HEK293 A1AR Nomad cell line (Innoprot), agonist mode. The note with it: compounds at 10 µM, normalized to 10 µM NECA (100%) and vehicle DMSO (0%). It is filed as cell-based. The source says: For screening of the initial compounds predicted by machine learning models to activate A1AR receptor, we used the HEK293 A1AR Nomad cell line, which consists of HEK293 cells stably expressing human A1AR with no tag. This cell line has been designed to assay compounds or analyze their capability to modulate the A1AR. When the agonist binds to A1AR in this engineered cell line a Go protein is activated, which in turn, triggers a cellular response mediated by cAMP inhibition. This cellular response can be measured by quantifying the increase in fluorescence intensity and its cellular distribution. An agonist assay was performed for 29 compounds (predicted to be active by the machine learning model) in the human recombinant HEK293 A1AR Nomad cell line using a fluorescence-based assay. An agonist effect of the compounds was measured by quantifying the changes in the fluorescence emission cAMP Nomad biosensor, this elevation of fluorescence was analyzed using a plate reader Synergy 2 (Biotek, Winooski, VT). The error bars represent the standard deviation among the three replicate wells. The 29 compounds were tested at 10 μM using nonselective AR agonist adenosine-5′-N-ethyluronamide (NECA) at 10 μM as a reference.
(In general: cAMP levels reflect the balance of adenylyl cyclase and phosphodiesterase activity.)

Test [2] has as its system T1, human A1AR. The experiment in a line: Radioligand displacement binding, [3H]DPCPX, HEK293 membranes. As to conditions: mean ± standard error, three independent experiments. On the procedure:
(§1) HEK293 cells stably expressing the human A1AR, A2AAR, A3AR were cultured in DMEM supplemented with 10% fetal bovine serum, 100 Units/ml penicillin, 100 µg/ml streptomycin, and 2 µmol/ml glutamine. To prepare cell membranes, cells were detached from culture plates by scraping into cold PBS and centrifuged at 250 g for 5 min. The pellets were resuspended in ice-cold PBS buffer (pH 7.4) and then homogenized. After homogenization and suspension, cells were centrifuged at 1,000 g for 10 min, and the pellet was discarded. The suspension was then re-centrifuged at 20,000 g for 60 min at 4°C. […] The aliquots of membrane preparations were stored at −80°C until the binding experiments. For displacement binding assays, membrane preparations (20 µg proteins/tube) were incubated at 25°C for 60 min with a final concentration of [^3H]DPCPX (0.5 nM), [^3H]ZM241385 (1.0 nM), […] [^125I]I-AB-MECA (0.1 nM) for A1AR, A2AAR, A3AR, respectively, in a mixture containing 50 µl of increasing concentrations of a test ligand in a total assay volume of 200 µl of 50 mM Tris HCl, pH 7.4, containing 10 mM MgCl2. Nonspecific binding was determined using 100 µM of XAC. The reaction was terminated by filtration with GF/B filters using a Brandel (Gaithersburg, MD) 24-channel harvester. Filters were placed in scintillation vials containing 5 ml of Hydrofluor scintillation buffer (National Diagnostics, Atlanta, GA) and counted using a Tricarb 2810TR liquid scintillation counter (PerkinElmer, Waltham, MA).
(In general: Loss of bound radioactivity is the signal in a displacement assay; it reports binding, not function.)

Test [3] has as its target T2, human A2AAR (Homo sapiens, UniProt P29274).
T2 construct: expressed in transfected cells; host or cells: HEK293
The experiment in a line: Radioligand displacement binding, [3H]ZM241385, HEK293 membranes. As to conditions: 100 µM, mean ± standard error, three independent experiments. As for the experimental part: as §1

Test [4] concerns human A2BAR. The experiment in a line: Radioligand displacement binding, [3H]DPCPX.
The subject of test [5] is T3, A1AR.
T3 construct: expressed in transfected cells; host or cells: HEK293
The experiment in a line: cAMP assay in AR-expressing HEK293 cells (ALPHAScreen), A1AR. The test is classed as cell-based, human. The note with it: A1AR-expressing HEK cells, cAMP inhibition, Cl-ENBA reference full agonist. As for the experimental part: (§2) HEK293 cells were grown in 96-well plates in DMEM supplemented with 10% fetal bovine serum, 100 Units/ml penicillin, 100 µg/ml streptomycin, and 2 µmol/ml glutamine. […] For A1AR and A3AR, after incubation with agonists for 20 min, forskolin (10 µM) was added and the mixture incubated for an additional 15 min. The reaction was terminated upon removal of the supernatant and addition of 100 µl Tween-20 (0.3%). Intracellular cAMP levels were measured with an ALPHAScreen cAMP assay kit as instructed by the manufacturer (PerkinElmer).

In test [6] the target is T2, human A2AAR. The experiment in a line: cAMP assay in AR-expressing HEK293 cells (ALPHAScreen), A2AAR. The test is classed as cell-based. On the procedure:
as §2

Test [7] relates to T4, A2BAR.
T4 construct: expressed in transfected cells; host or cells: HEK293
The experiment in a line: cAMP assay in AR-expressing HEK293 cells (ALPHAScreen), A2BAR. It is filed as cell-based. As for the experimental part: as §2

Test [8] has as its system T5, A1AR.
T5 construct: host or cells: A1AR-bla U2OS
Kind of test: A1AR-bla U2OS agonist screen (beta-arrestin/TEV, beta-lactamase reporter; Thermo Fisher). It is filed as cell-based. On the procedure: A1AR-bla U2OS cells are thawed and resuspended in Assay Media (Freestyle media) to a concentration of 312,500 cells/ml. 32 μl of cell suspension (10,000 cells) was added to each well of a 384-well TC-Treated assay plate. Cells in Assay Media were incubated for 16–24 h in the plate at 37°C/5% CO2 in a humidified incubator. 4 μl aliquots of a 10X serial dilution of NECA (control agonist starting concentration, 500 nM) or compounds were added to appropriate wells of the plate. 4 μl of Assay Media was added to all wells to bring the final assay volume to 40 μl. The plate was incubated for 5 h at 37°C/5% CO2 in a humidified incubator. 8 μl of 1 μM substrate + Solution D Loading Solution was added to each well and the plate was incubated for 2 h at room temperature. The plate was read on a fluorescence plate reader.
This parental cell line stably expresses a beta‐arrestin/TEV protease fusion protein and the beta‐lactamase reporter gene under the control of a UAS response element. […] We also used a secondary assay PathHunter® β-Arrestin assay, which monitors the activation of A1AR in a homogenous, non-imaging assay format using a technology developed by DiscoverX called Enzyme Fragment Complementation (EFC) with β-galactosidase (β-Gal) as the functional reporter.

Test [9] concerns the target T6, human A1 receptor (Homo sapiens, UniProt P30542).
T6 sequence (P30542 1-326): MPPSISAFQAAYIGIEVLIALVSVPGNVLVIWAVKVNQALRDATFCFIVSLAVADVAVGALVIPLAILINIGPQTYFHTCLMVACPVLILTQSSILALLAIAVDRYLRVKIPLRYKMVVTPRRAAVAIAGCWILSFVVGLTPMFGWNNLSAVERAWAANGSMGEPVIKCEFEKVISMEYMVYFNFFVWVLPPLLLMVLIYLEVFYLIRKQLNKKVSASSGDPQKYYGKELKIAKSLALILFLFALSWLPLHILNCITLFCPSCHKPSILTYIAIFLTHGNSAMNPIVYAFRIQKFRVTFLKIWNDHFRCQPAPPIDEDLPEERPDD
Kind of test: A1AR calcium influx assay in BA/F3 cells (Eurofins). The note with it: maximum concentration tested 20 µM.
Experimental: This assay was performed using the screening services of Eurofins. Evaluation of the agonist activity of compounds at the human A1 receptor expressed in BA/F3 cells was determined by measuring their effect on cytosolic Ca^2+ ion mobilization using a fluorimetric detection method. The cells were suspended in HBSS buffer (Invitrogen) complemented with 20 mM Hepes and then distributed in microplates at a density of 5 × 10^4 cells/well. The fluorescent probe (Fluo8, AAT Bioquest, San Francisco, CA) mixed with probenicid in HBSS buffer (Invitrogen) complemented with 20 mM Hepes (Millipore, Burlington, MA) (pH 7.4) was then added into each well and equilibrated with the cells for 60 min at 30°C. Thereafter, the assay plates were positioned in a microplate reader (FlipR Tetra, Molecular Devices, San Jose, CA), which was used for the addition of the test compound, reference agonist or HBSS buffer (basal control), and for the measurements of changes in fluorescence intensity that varies proportionally to the free cytosolic Ca^2+ ion concentration.

Values joined by “and” are separate entries in the source; they are usually repeats but may differ in a detail not shown here. Identical values can stand only once. “Also recorded” adds a separate entry of the source. Bounds are passed on as bounds.

T2 sequence (P29274 whole entry): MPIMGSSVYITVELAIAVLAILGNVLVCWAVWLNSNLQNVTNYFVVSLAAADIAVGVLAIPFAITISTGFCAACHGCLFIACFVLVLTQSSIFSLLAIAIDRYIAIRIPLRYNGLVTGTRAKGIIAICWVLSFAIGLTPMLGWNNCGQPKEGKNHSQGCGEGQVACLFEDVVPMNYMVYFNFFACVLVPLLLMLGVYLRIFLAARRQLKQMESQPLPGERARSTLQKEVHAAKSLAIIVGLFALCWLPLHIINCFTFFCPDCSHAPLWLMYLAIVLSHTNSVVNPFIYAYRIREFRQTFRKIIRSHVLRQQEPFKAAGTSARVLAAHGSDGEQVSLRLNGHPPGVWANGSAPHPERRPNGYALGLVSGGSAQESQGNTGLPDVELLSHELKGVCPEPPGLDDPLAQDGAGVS

For orientation: inhibition means the relative decrease from the control value, in per cent. In general, Emax refers to the maximal effect, on the per cent scale that the assay sets. By EC50 is commonly meant the concentration that produces a half-maximal response. With `N#Cc1ccc(Oc2ccc3c(c2)COB3O)cc1` [Crisaborole], the “normalized activity with respect to the positive control” value in [1] came out at 98.52%. Besides, the figures for the “Inhibition of specific binding, % inhibition at 100 µM, A1 ([3H]DPCPX)” value in test [2] and in test [2] (listed as crisaborole) were 36.9 ± 3.4% and “weakly binding”, respectively. Also, the “Inhibition of specific binding, % inhibition at 100 µM, A2A ([3H]ZM241385)” value in [3] was “No significant binding inhibition”. In test [3] (read-out: Inhibition of specific binding, % inhibition at 100 µM, A2A ([3H]ZM241385)), the inhibition at 100 µM was 31.2 ± 5.6%. Moreover, the “Inhibition of specific binding, % inhibition at 100 µM, A2B ([3H]DPCPX)” value in test [4] is less than 10%. Also, the “cAMP, A1AR agonist activity” value is “Not active” in test [5] and “without activity” in test [5] (listed as crisaborole). In addition, the “cAMP, A2AAR activity (stimulation of cAMP)” value in test [6] (A2AAR-expressing HEK293 cells) is given as “Active”. Also, the maximal response (Emax) in [6] (A2AAR-expressing HEK293 cells, reference full agonist = 100% stimulation) was 67%. Further, the EC50 in test [6] (HEK293 cells expressing human A2AAR, absence of antagonist, read-out: EC50, stimulation of cAMP, A2AAR) was 2.8 µM and 2.78 µM. The “cAMP Emax, A2BAR” value in test [7] (NECA reference full agonist (100%)) is “Emax = 17%”. Besides, the “cAMP accumulation, A2BAR” value in test [7] (weaker than at the A2AAR) is “increased cAMP accumulation”. For the same compound, the “activation of A1AR, A1AR-bla U2OS cells” value in test [8] is listed as “no activation; also recorded: without activity; also recorded: no agonist activity”. Also, the “A1AR agonist activity, calcium influx assay” value in test [9] is “no activity”; in test [9] (listed as crisaborole), “without activity”.

(Values after publication PMC9257522, “Machine Learning for Discovery of New ADORA Modulators” (Frontiers in Pharmacology, 2022).)
